Columns and labels:
Assay type in all cases: in vivo, Arabidopsis thaliana
defence marker genes = assay: qPCR analysis of defence marker gene expression in Arabidopsis plants
Protocol: Arabidopsis thaliana Columbia (Col-0) was the accession used for all the experiments. Seeds were surface sterilised by subsequent treatment with 50% v/v Et-OH and 3% bleach solution in agitation for 5 and 10 min, respectively. Seeds were then washed three times with distilled water and stratified for 3 days at 4° C. in the dark. For qPCR analysis and microarray experiments, seeds were sown on square petri dishes ([…]) containing half strength Murashige and Skoog (MS) salt, 2.5 mM MES, 1% w/v sucrose and 0.8% w/v plant agar. The experiments were performed using 14-day old seedlings grown vertically in a controlled growth cabinet with short day conditions ( 8/16 h light/dark; 100 μmol photons m^−2 s^−1) at 22±0.5° C. Treatments were performed by applying 40-50 μl of fresh-prepared and filtered solution per seedling.
For RNA extraction, 14-day old leaves from ten independent plants were collected at the indicated time point after treatments, pooled and frozen in liquid nitrogen. Total RNA was extracted from 100 mg of ground-frozen samples using the Maxwell® LEV Plant RNA Kit (Promega, Madison, WI, USA) and the RNA integrity was determined through NanoDrop 2000 UV-Vis Spectrophotometer (Thermo Scientific, Loughborough, UK). First-strand cDNA was synthesized by using SOLIScript® RT cDNA synthesis MIX (Solis Biodyne, Tartu, Estonia) and qPCRs were performed using SYBR® Selected MasterMix 2× (Applied Biosystems, Thermo Fisher Scientific, Waltham, USA), following the manufacturers' protocols. The cycling conditions consisted of an initial 7 min at 95° C., followed by 40 two-step cycles at 95° C. for 5 s and at 60° C. for 30 s. Melting curve analysis was performed after cycle completion to validate amplicon identity. Relative expression levels were calculated following the standard curve-based method (Larionov et al. A standard curve based method for relative real time PCR data processing, BMC Bioinformatics. 2005, vol. 6, 1) by using ACTIN as reference. Gene-specific primers used in this work are indicated below. […]

oxidative burst = assay: Oxidative burst detection (DAB, NBT, luminol-based assays)
Protocol: Hydrogen peroxide was assayed in both in vitro-growth and in soil-growth Arabidopsis plants. In situ detection of H2O2 was performed following the protocol described by Daudi and O'Brien (Detection of Hydrogen Peroxide by DAB Staining in Arabidopsis Leaves. Bio Protoc. 2012, vol. 2(18), e263). Briefly, 5-week-old Col-O plants leaves were droplet-treated (40-50 μl drops per leaf) with indicated compounds. At 24 h after treatment four rosette leaves from five independent plants were gently vacuum-infiltrated (5 min) with 1 mg ml^−1 3,3′-diaminobenzidine (DAB) dissolved in 10 mM sodium phosphate buffer and 0.05% v/v Tween 80. The staining reaction was terminated 5 h after DAB infiltration, and leaves were fixed in ethanol:glycerol:acetic acid 3:1:1. Chlorophyll was removed by several washing steps with 70% v/v ethanol and pictures were token with a stereomicroscope (Discovery V8, Zeiss).
Elicitor-induced H2O2 was also detected by luminol-peroxidase-based assay as described by Albert et al. (Chemiluminescence Detection of the Oxidative Burst in Plant Leaf Pieces. Bio-protocol 2015, vol. 5(6), e1423). Briefly, twenty leaves from 10 independent 4-5-week-old Col-0 plants were cut and incubated in ddH2O overnight. Time course luminescence was evaluated using The SpectraMax iD3 Multi-Mode Microplate Reader (Molecular devices, San Jose, CA, USA) with an integration time per well=1000 ms. […]

camalexin = assay: Camalexin quantification by LC-MS; conditions: 100 μM, 24 h, 14-day-old Col-0 plants
Protocol: For each treatment, camalexin was extracted from a pool of 14-day-old Arabidopsis. Briefly, 100 mg of ground-frozen samples were soaked using 80% (v:v) methanol in 1:1 (m/v) ratio. After homogenization, the supernatant was recovered through centrifugation at 17,000×g for 5 min and evaporated at 50° C. in nitrogen gas atmosphere. The residues were finally resuspended in high-performance LC-grade methanol and filtrated with 0.22-μm filters. Each pool was then analysed three times by LC-MS, using a reverse-phase LUNA® Omega 5 μm Polar C18 column (250×4.6 mm). The mobile phases were composed of 0.1% […] (solvent A) and acetonitrile (solvent B). The applied gradient was as follows: 0-2 min, 10% B; 2-13 min, 10-98% B; 13-23 min, 98% B; 23-25 min, 98-10% B; 25-30 min, […]; post-run 1 min.

[1] = vs CTR, same array-hybridised RNA

OC[C@H]1O[C@@H](O[C@H]2[C@H](O)[C@@H](O)[C@H](O)O[C@@H]2CO)[C@H](O)[C@@H](O)[C@@H]1O [Cellobiose, β-D-glucopyranosyl(1→4)D-glucopyranose]
mRNA accumulation of MPK3/6, WRKY33, PAD3 and PEN3 (defence marker genes; 100 μM, 1 and 24 hours, 14-day old plants): lower magnitude of expression
LOX4 (AT1G72520) gene expression, qPCR (defence marker genes; [1]): 0.69 fold change
MPK3 (AT3G45640) gene expression, qPCR (defence marker genes; [1]): 0.02 fold change
MPK6 (AT2G43790) gene expression, qPCR (defence marker genes; [1]): 0.55 fold change
PAD3 (AT3G26830) gene expression, qPCR (defence marker genes; [1]): −1.06 fold change
PEN3 (AT1G59870) gene expression, qPCR (defence marker genes; [1]): 1.07 fold change
PR1 (AT2G14610) gene expression, qPCR (defence marker genes; [1]): 1.29 fold change
WRKY18 (AT4G31800) gene expression, qPCR (defence marker genes; [1]): 2.60 fold change
WRKY22 (AT4G01250) gene expression, qPCR (defence marker genes; [1]): 1.10 fold change
WRKY33 (AT2G38470) gene expression, qPCR (defence marker genes; [1]): 1.31 fold change
IGMT2 (At1G21120) gene expression, qPCR (defence marker genes; vs mock, same array-hybridised RNA): −1.59 fold change
short-term extracellular H2O2 production (luminol-based assay) (oxidative burst; 14-day old plants): no H2O2 production was detected
in situ production of H2O2 and O2− (DAB and NBT assays) (oxidative burst; 24 h after treatments, 5-week old plants): no measurable production
camalexin level (camalexin): 3.7 ± 1.8 ng/g
